Reference: patent EP3036295B1, “OFFSET PRINTING INKS COMPRISING AN ISOSORBIDE FATTY ACID ESTER SOLVENT” (OLEON NV, priority 2013, dated 2015)

Legend:
[1] = system: bacteria, fungi and yeasts; conditions: WO 2013/017257 A1; cited from earlier work
[2] = Kauri butanol value (solvent power), ASTM D1133; type: physicochemical; conditions: Table 2, comparison with conventional solvents
Source text: The "Kb value" is a measure of solvent power, and may be determined using the standardized test ASTM D1133. A high Kb value is an indication that the isosorbide ester is more capable in dissolving a wide range of resins of varying nature, and in higher concentrations, as compared to existing solvents used in offset printing inks. This is important as offset inks usually contain besides one or more pigments, approximately 40-65 wt. % of resin binders, for example rosin resins, maleic resins, hydrocarbon resins and alkyd resins, to ensure formation of a polymer film which binds the pigments or dyes together and provides resistance properties. Such resin binders are usually absent in inkjet printing inks. The offset printing ink may further comprise approximately 3 - 6 wt. % of additives, for example waxes, siccative agents and/or inhibitors. Without wanting to be bound by this theory, the applicants believe that this advantageous combination of properties, i.e. high wetting power of the pigments and high Kb value associated with good dissolution properties for the resin component present in the offset ink, must be attributed to the structure of the isosorbide moiety in the ester molecule. […]
In addition the inventors have observed that the Kb value may further be tuned by varying the nature of the carboxylic acid of the isosorbide ester and/or by varying the degree of esterification, in order to provide an ester with good solvent properties or an ester which functions much more as a diluent for the other components present in a formulation. […] Kauri resin is readily soluble in 1-butanol but is not soluble in many other solvents. […] Better solvents, for example toluene, may be added up to larger quantities before the solution becomes cloudy, and thus have a high Kauri butanol value. Weaker solvents like hexane may only be added in smaller quantities and will have a small Kauri butanol value. The Kauri butanol value (Kb value) is usually determined according to ASTM D1133 standardized test. […]

[3] = Surface tension, Du Noüy ring method; type: physicochemical
Method: The surface tension was measured using the Du Noüy ring method (http://www.kruss.de/en/theory/measurements/surface-tension/ring-method.html. The surface or interfacial tension is measured with the help of an optimally wettable ring suspended from a precision balance. A height-adjustable sample carrier is used to bring the liquid to be measured into contact with the probe. A force acts on the balance as soon as the probe touches the surface. If the length of the probe is known (circumference of ring or length of plate) the force measured can be used to calculate the interfacial or surface tension. A further requirement is that the probe must have a very high surface energy. This is why a platinum-iridium alloy is used for the ring and roughened platinum for the plate.
The liquid is raised until contact with the surface is registered. The sample is then lowered again so that the liquid film produced beneath the ring is stretched. As the film is stretched a maximum force is experienced; this is recorded in the measurement. At the maximum the force vector is exactly parallel to the direction of motion; at this moment the contact angle θ is 0°. In practice the distance is first increased until the area of maximum force has been passed through. The sample vessel containing the liquid is then moved back so that the maximum point is passed through a second time. The maximum force is only determined exactly on this return movement and used to calculate the tension. The calculation is made according to the following equation: σ = (Fmax −FV)/(L⋅cosθ) [formula] (σ =surface or interfacial tension; Fmax=maximum force; FV=weight of volume of liquid lifted; L=wetted length, θ=contact angle) The contact angle θ decreases as the extension increases and has the value 0° at the point of maximum force, this means that the term cos θ has the value 1.

| Compound | antimicrobial activity [1] | Kauri butanol ASTM D 1133 [2] | Surface tension Du Noüy ring method [3] [mN/m] |
| --- | --- | --- | --- |
| isosorbide dicaprylate | isosorbide itself, nor the dicaprylate, exhibit any such activity |  |  |
| O[C@@H]1CO[C@H]2[C@@H]1OC[C@@H]2O [isosorbide, Isosorbide] | isosorbide itself, nor the dicaprylate, exhibit any such activity |  |  |
| Xylene |  | 90 | 29 |
| Cc1ccccc1 [Toluene] |  | 105 | 29 |
| C=C(C)[C@H]1CC=C(C)CC1 [D-limonene] |  | 67 | 25 |
| isosorbide monocaprylate | responsible for the antimicrobial activity observed |  |  |
